# Laboratory results: patent publication US20240115656A1, “Treatment of Constipation-Predominant Irritable Bowel Syndrome” (Ironwood Pharmaceuticals, Inc., priority 2010, published 2024)
# Positions of bridges follow the written chain, without caps; N, C: chain ends. Residues, ends and D or L forms follow the SMILES beside them.
# Legend:
# [1] = test system: chronic constipation (CC); conditions: Phase 2b studies for CC; four-week treatment period; cited from earlier work
# [2] = test system: patients meeting modified Rome II criteria for constipation-predominant irritable bowel syndrome; assay: Trial 1 (LIN-MD-31): randomized, double-blind, placebo-controlled trial with 12-week treatment period and randomized withdrawal period; assay type: in vivo, human
# Procedure: (§1) Linaclotide capsules from Example 4 were administered in two multicenter, randomized, double-blind, placebo-controlled parallel-group trials.
# Trial 1 (LIN-MD-31) was conducted on approximately 800 patients meeting modified Rome II criteria for constipation-predominant irritable bowel syndrome. The trial included a two-week pretreatment baseline period, a 12-week treatment period, and a randomized withdrawal period (see FIG. 1A).
# (§2) The Pretreatment Period is defined as the 14 to 21 calendar days immediately before starting the trial during which patients provided information related to their daily bowel habits, daily assessment of the symptom severity (such as, e.g., abdominal pain), constipation severity, and use of other medicines, laxatives, suppositories, and/or enemas. Patients who satisfied the necessary criteria were entered into the Treatment Period.
# (§3) In both trials, the Treatment Period began with randomization. In Trial 1, treatment lasted for 12 weeks. In Trial 2, treatment lasted for 26 weeks. Patients were randomized to approximately equal-sized treatment groups consisting of 266 μg linaclotide or a placebo, taken once daily in the morning 30 minutes before breakfast. Patients continued to provide daily assessments such as their daily bowel habit assessments and daily patient symptom severity assessments.
# (§4) In both trials, daily assessment data for patients in both treatment groups were compiled to give the following primary, co-primary and secondary treatment efficacy endpoints, which have been defined by United States and European regulatory agencies for the study of the efficacy of IBS-C.
# (§5) A patient was classified as a 9/12 Week APC 3+1 Responder if they were a weekly APC 3+1 Responder for ≥9 out of the 12 (i.e., 9/12) weeks of the study.
# (§6) A patient was classified as a 9/12 Week CSBM 3+1 Responder if they were a weekly CSBM 3+1 Responder for ≥9/12 weeks.
# (§7) A patient was classified as a 9/12 Week Abdominal Pain Responder if they were a weekly Abdominal Pain Responder for ≥9/12 weeks.
# (§8) A patient was classified as a 6/12 Week APC+1 Responder if they were a weekly APC+1 Responder for ≥6 out of the 12 (i.e., 6/12) weeks of the study.
# (§9) Also compiled from the patient daily data were the following secondary efficacy endpoints: • Change From Baseline (i.e., change from pre-treatment period) in CSBM Frequency Rate (measured as a weekly rate); • Change From Baseline (“CFB”) in SBM Frequency Rate (weekly rate); • Change From Baseline in Stool Consistency (measured on a 7-point BSFS); • Change From Baseline in Severity of Straining (measured on a 5-point scale); • Change From Baseline in Abdominal Pain (measured on a 11-point numerical rating scale and scored 0-10); • Change From Baseline in Abdominal Discomfort (measured on […] numerical rating scale and scored 0-10); • Change From Baseline in Bloating (measured on a 11-point numerical rating scale and scored 0-10); • 6/12 Week CSBM+1 Responder; • 6/12 Week Abdominal Pain Responder; and • Change From Baseline in Percent of Abdominal Pain-free Days (Pain-free is a score of 0 on the 0-10 point scale).
# Patients who were randomized to linaclotide in the Treatment Period and completed the 12 weeks of the Treatment Period, the RW Population, were randomized to treatment with linaclotide or placebo in the RW Period as follows: half of the RW Population received placebo for the first half of the RW Period followed by administration of 266 μg linaclotide; one quarter of the RW Population received 266 μg linaclotide for the entire RW Period and the remaining one quarter of the RW Population received 266 μg linaclotide for the first half of the RW Period and placebo for the remainder of the RW Period. Patients that were randomized to placebo in the Treatment Period and completed the 12 weeks of the Treatment Period received 266 μg linaclotide in the RW Period.
# [3] = Systemic levels of linaclotide after oral administration; assay type: in vivo; conditions: after oral administration at therapeutic dose levels
# [4] = test system: patients meeting modified Rome II criteria for constipation-predominant irritable bowel syndrome; assay: Trial 2 (MCP-103-302): randomized, double-blind, placebo-controlled trial with 26-week treatment period; assay type: in vivo, human
# Procedure: as §1
# Trial 2 (MCP-103-302) was conducted on approximately 805 patients meeting modified Rome II criteria for constipation-predominant irritable bowel syndrome (<3 CSBM/wk, ≤5 SBM/wk, abdominal pain≥3 on a 0-10 scale.) As in Trial 1, the trial included a two-week pretreatment baseline period; however, the treatment period was continued for 26 weeks rather than 12 weeks as in Trial 1, and no randomized withdrawal period was performed (see FIG. 1B).
# as §2, §3, §4, §5, §6, §7, §8
# In Trial 2, the above co-primary efficacy parameters, 12-week Abdominal Pain/Abdominal Discomfort Responder and 12-week IBS Degree of Relief Responder, were also computed for the full 26 week treatment period.
# as §9
# [5] = 266 μg linaclotide group, once daily, 12 weeks
# [6] = 266 μg linaclotide group, once daily
# [7] = 266 μg linaclotide group, once daily, first 12 weeks
# [8] = 26-week treatment period, linaclotide-treated patients
# [9] = after 12 weeks, linaclotide-treated patients
# [10] = main secondary efficacy endpoint, full 26 week treatment period
# [11] = throughout the 26-week treatment period, linaclotide-treated patients
smiles,measurement,setting,value
"C[C@@H]1NC(=O)[C@@H]2CCCN2C(=O)[C@H](CC(N)=O)NC(=O)[C@@H]2CSSC[C@H](N)C(=O)N[C@H]3CSSC[C@H](NC1=O)C(=O)N[C@@H]([C@@H](C)O)C(=O)NCC(=O)N[C@H](C(=O)N[C@@H](Cc1ccc(O)cc1)C(=O)O)CSSC[C@H](NC(=O)[C@H](Cc1ccc(O)cc1)NC(=O)[C@H](CCC(=O)O)NC3=O)C(=O)N2 [linaclotide, Cys1 Cys2 Glu3 Tyr4 Cys5 Cys6 Asn7 Pro8 Ala9 Cys10 Thr11 Gly12 Cys13 Tyr14] (H-CCEYCCNPACTGCY-OH; disulfide 1-6, 2-10, 5-13)","effect on constipation, abdominal discomfort and bloating",[1],"reduced constipation, abdominal discomfort, and bloating"
same,6/12-week APC+1 pain responder rate,[2]; [5],33.6%
same,6/12-week abdominal pain responder rate,[2]; [5],50.1%
same,6/12 week CSBM+1 responder rate,[2]; [5],48.6%
same,9/12-week APC 3+1 responder rate,[2]; [5],12.1%
same,9/12-week CSBM 3+1 responder rate,[2]; [5],19.5%
same,9/12-week abdominal pain responder rate,[2]; [5],34.3%
same,12-week Abdominal Pain/Abdominal Discomfort Responder,[2]; [5],54.8%
same,12-week IBS Degree of Relief Responder,[2]; [5],37.0%
same,rebound of IBS-C symptoms following discontinuation of linaclotide treatment,[2]; Randomized Withdrawal Period,no evidence of rebound of IBS-C symptoms
same,12-week Abdominal Pain/Abdominal Discomfort Responder: Statistical Significance (266 μg vs. Placebo),[2]; co-primary efficacy parameter,Yes
same,12-week IBS Degree of Relief Responder: Statistical Significance (266 μg vs. Placebo),[2]; co-primary efficacy parameter,Yes
same,adverse event: diarrhea with mild symptoms,[2]; linaclotide group,9%
same,adverse event: diarrhea with moderate symptoms,[2]; linaclotide group,8%
same,adverse event: diarrhea with severe symptoms,[2]; linaclotide group,2%
same,overall rate of discontinuation due to adverse events,[2]; linaclotide group,8%
same,patients reporting at least a 10% improvement in abdominal symptoms over 12 weeks,"[2]; linaclotide treatment, FIG. 10",under 80%
same,adverse event: abdominal pain,[2]; linaclotide-treated patients,5%
same,adverse event: diarrhea,[2]; linaclotide-treated patients,19%
same,adverse event: flatulence,[2]; linaclotide-treated patients,5%
same,adverse event: headache,[2]; linaclotide-treated patients,5%
same,more CSBMs per week than with the placebo alone,"[2]; on average, 12 weeks, FIG. 12C",about 1.5 CSBMs per week
same,time until abdominal pain was reduced over the pre-treatment baseline,"[2]; on average, sustained throughout the treatment period",1 to 3 days
same,6/12 Week APC + 1 Responder: Statistical Significance (266 μg vs. Placebo),[2]; primary efficacy endpoint,Yes
same,9/12 Week APC 3 + 1 Responder: Statistical Significance (266 μg vs. Placebo),[2]; primary efficacy endpoint,Yes
same,9/12 Week Abdominal Pain Responder: Statistical Significance (266 μg vs. Placebo),[2]; primary efficacy endpoint,Yes
same,9/12 Week CSBM 3 + 1 Responder: Statistical Significance (266 μg vs. Placebo),[2]; primary efficacy endpoint,Yes
same,6/12 Week Abdominal Pain Responder: Statistical Significance (266 μg vs. Placebo),[2]; secondary efficacy endpoint,Yes
same,6/12 Week CSBM + 1 Responder: Statistical Significance (266 μg vs. Placebo),[2]; secondary efficacy endpoint,Yes
same,12-Week Abdominal Discomfort (CFB): Statistical Significance (266 μg vs. Placebo),[2]; secondary efficacy endpoint,Yes
same,12-Week Abdominal Pain (CFB): Statistical Significance (266 μg vs. Placebo),[2]; secondary efficacy endpoint,Yes
same,12-Week Bloating (CFB): Statistical Significance (266 μg vs. Placebo),[2]; secondary efficacy endpoint,Yes
same,12-Week CSBM Frequency Rate(CFB): Statistical Significance (266 μg vs. Placebo),[2]; secondary efficacy endpoint,Yes
same,12-Week Percent of Abdominal Pain-free Days (CFB): Statistical Significance (266 μg vs. Placebo),[2]; secondary efficacy endpoint,Yes
same,12-Week SBM Frequency Rate (CFB): Statistical Significance (266 μg vs. Placebo),[2]; secondary efficacy endpoint,Yes
same,12-Week Severity of Straining (CFB): Statistical Significance (266 μg vs. Placebo),[2]; secondary efficacy endpoint,Yes
same,12-Week Stool Consistency (CFB): Statistical Significance (266 μg vs. Placebo),[2]; secondary efficacy endpoint,Yes
same,levels of linaclotide seen systemically,[3],no detectable levels
same,12-week Abdominal Pain/Abdominal Discomfort Responder,[4]; [6],54.1%
same,12-week IBS Degree of Relief Responder,[4]; [6],39.4%
same,6/12-week APC+1 pain responder rate,[4]; [7],33.7%
same,9/12-week APC 3+1 responder rate,[4]; [7],12.7%
same,9/12-week CSBM 3+1 responder rate,[4]; [7],18.0%
same,9/12-week abdominal pain responder rate,[4]; [7],38.9%
same,overall rate of discontinuation due to adverse events,[4]; [8],10.2%
same,patients discontinued due to diarrhea,[4]; [8],4.5%
same,overall rate of discontinuation due to adverse events,"[4]; after 12 weeks, linaclotide group",9%
same,adverse event: abdominal pain,[4]; [9],4%
same,adverse event: diarrhea,[4]; [9],18%
same,adverse event: flatulence,[4]; [9],3%
same,adverse event: headache,[4]; [9],3%
same,12-week Abdominal Pain/Abdominal Discomfort Responder: Statistical Significance (266 μg vs. Placebo),[4]; co-primary efficacy parameter,Yes
same,12-week IBS Degree of Relief Responder: Statistical Significance (266 μg vs. Placebo),[4]; co-primary efficacy parameter,Yes
same,26-week Abdominal Pain/Abdominal Discomfort Responder: Statistical Significance (266 μg vs. Placebo),[4]; [10],Yes
same,26-week IBS Degree of Relief Responder: Statistical Significance (266 μg vs. Placebo),[4]; [10],Yes
same,CSBMs per week compared with placebo,"[4]; on average, 12 weeks after treatment, FIG. 12C",more CSBMs per week than with the placebo alone
same,time until abdominal pain was reduced over the pre-treatment baseline,"[4]; on average, sustained throughout the 26 week treatment period",1 to 3 days
same,6/12 Week APC + 1 Responder: Statistical Significance (266 μg vs. Placebo),[4]; primary efficacy endpoint,Yes
same,9/12 Week APC 3 + 1 Responder: Statistical Significance (266 μg vs. Placebo),[4]; primary efficacy endpoint,Yes
same,9/12 Week Abdominal Pain Responder: Statistical Significance (266 μg vs. Placebo),[4]; primary efficacy endpoint,Yes
same,9/12 Week CSBM 3 + 1 Responder: Statistical Significance (266 μg vs. Placebo),[4]; primary efficacy endpoint,Yes
same,6/12 Week Abdominal Pain Responder: Statistical Significance (266 μg vs. Placebo),[4]; secondary efficacy endpoint,Yes
same,6/12 Week CSBM + 1 Responder: Statistical Significance (266 μg vs. Placebo),[4]; secondary efficacy endpoint,Yes
same,12-Week Abdominal Discomfort (CFB): Statistical Significance (266 μg vs. Placebo),[4]; secondary efficacy endpoint,Yes
same,12-Week Abdominal Pain (CFB): Statistical Significance (266 μg vs. Placebo),[4]; secondary efficacy endpoint,Yes
same,12-Week Bloating (CFB): Statistical Significance (266 μg vs. Placebo),[4]; secondary efficacy endpoint,Yes
same,12-Week CSBM Frequency Rate(CFB): Statistical Significance (266 μg vs. Placebo),[4]; secondary efficacy endpoint,Yes
same,12-Week Percent of Abdominal Pain-free Days (CFB): Statistical Significance (266 μg vs. Placebo),[4]; secondary efficacy endpoint,Yes
same,12-Week SBM Frequency Rate (CFB): Statistical Significance (266 μg vs. Placebo),[4]; secondary efficacy endpoint,Yes
same,12-Week Severity of Straining (CFB): Statistical Significance (266 μg vs. Placebo),[4]; secondary efficacy endpoint,Yes
same,12-Week Stool Consistency (CFB): Statistical Significance (266 μg vs. Placebo),[4]; secondary efficacy endpoint,Yes
same,adverse event: abdominal pain,[4]; [11],4.5%
same,adverse event: diarrhea,[4]; [11],19.7%
same,adverse event: flatulence,[4]; [11],3.7%
same,adverse event: headache,[4]; [11],3.2%
same,adverse event: viral gastroenteritis,[4]; [11],3.7%
